The text below walks through data of patent US20040247639A1, “Novel methods and compositions for the treatment or prevention of dysmenorrhoea and menstrual side effects: the use of phospholipase inhibitors” (priority 2000, published 2004).

Read-outs that look alike come from different tables or passages of the source.

For data set [1], the system named is rat uterus. The data set can be described thus: Spontaneous contractions of rat uterus in organ bath (naturally-cycling rats). An excerpt: (§1) To examine the potential benefit of PLA2 inhibitors in treating dysmenorrhoea in women, an in vitro model was developed which measured the force and frequency of contractions in a rat uterus. When removed from the rat and placed in an organ bath, the uterus contracts rhythmically. The force of contraction varies with the profile of sex hormones produced by the animal at the different stages of the sexual (oestrus) cycle. Levels of oestrogen and progesterone fluctuate throughout the sexual cycle. […]
(§2) In this model the uterine contractions are stimulated by the synthesis and release of eicosanoids and other contractile mediators by cells in the uterus, which then act on the muscle cells in the uterine wall to cause contraction. Compounds 5 and 9 were tested for their ability to inhibit spontaneous and oxytocin-induced contractions of a female rat uterus (described ahead). Addition of oxytocin, a hormone synthesised in the pituitary gland, gives uterine contractions of greater force and frequency by increasing the release of eicosanoids (Wassdal, I et al, 1998, Acta Physiol Scand, 164: 47-52, Burns, P D et al, 1998, Domest Anim Endocrinol, 15: 477-487, Asselin, E et al, 1997, Endocrinology, 138: 4798-4805). There is a relationship between the stage of the sexual cycle and the sensitivity of the uterus to oxytocin (Engstrom, T et al., 1999, J. Endocrinol., 161: 403-411). It has been shown that the contractions can be reduced if the synthesis of the mediators is blocked.
(§3) Uteri were removed from rats, divided into 4 segments and placed in organ baths to measure force and frequency of contraction. Spontaneous contractions were measured, then each segment of uterus was challenged with oxytocin (1 μI.U. to 100 mI.U.). The force and frequency of contraction was measured after oxytocin addition and a concentration response curve generated. The drugs—either an sPLA2 inhibitor or a NSAID—was then added to the bath and allowed to equilibrate for 30 minutes. The drugs were tested at concentrations ranging from 1 nM to 10 μM with one piece of tissue per concentration. The tissue was then challenged with increasing concentrations of oxytocin to generate a second concentration-response curve. The EC50 concentrations in control and drug-treated tissue were determined from the curves and compared.

Data set [2] concerns rat uterus. The data set can be described thus: Oxytocin-induced contractions of rat uterus in organ bath (naturally-cycling rats).
Excerpt: as §1, §2, §3

Data set [3] relates to rat uterus. Kind of data set: Rat uterine contractions, spontaneous and oxytocin-induced together. The note with it: for EC50: Rattus norvegicus; for drug concentrations suppressing spontaneous and oxytocin-induced uterine contractions: rat uterine model.
Excerpt: (§4) To examine the potential benefit of PLA2 inhibitors in treating dysmenorrhoea in women, an in vitro model was developed which measured the force and frequency of contractions in a rat uterus. When removed from the rat and placed in an organ bath, the uterus contracts rhythmically. The force of contraction varies with the profile of sex hormones produced by the animal at the different stages of the sexual (oestrus) cycle. Levels of oestrogen and progesterone fluctuate throughout the sexual cycle. To ensure a reproducible model, rats were ovarectomised and oestrogen, progesterone, a combination of oestrogen and progesterone and an inert control substance were given to mimic different stages of the sexual cycle.
as §2, with “Compounds 5 and 9 were tested for their ability to inhibit spontaneous and oxytocin-induced contractions of a female rat uterus (described ahead).” left out
as §3

Data set [4] deals with T1, type V human non-pancreatic sPLA2 (Homo sapiens, UniProt P39877).
T1 sequence (P39877 21-138): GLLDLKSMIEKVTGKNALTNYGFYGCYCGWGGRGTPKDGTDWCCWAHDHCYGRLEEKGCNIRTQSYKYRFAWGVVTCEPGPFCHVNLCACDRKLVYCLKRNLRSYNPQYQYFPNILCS
The note with it: Chen, Y. et al, 1998; cited from earlier work.

The test system of data set [5] is rat uterus. Kind of data set: Spontaneous uterine work in uteri of ovarectomised, sex hormone-treated rats. Particulars: for spontaneous uterine work: uteri removed 4 days after hormone treatment of ovarectomised rats, n=4-5.
Excerpt: as §4
(§5) In a separate series of experiments, rats were ovarectomised then treated with sex hormones to ensure animals are at the same stage of the oestrus cycle. Uteri were removed from the rats 4 days after hormone treatment, allowed to equilibrate in the organ baths for 30 minutes, then the intensity of uterine contractions and frequency of the spontaneous contractions was measured. In the oestrogen-primed uteri, spontaneous uterine work was […], in progesterone-primed rats, 10±0.9 mNs^−1, in oestrogen plus progesterone-primed uteri, 9±1.5 mNs^−1 and in control uteri 7.9±0.6 mNs^−1.
(§6) sPLA2 inhibitor 5 and ketoprofen were tested in the model to determine their ability to moderate both spontaneous contractions and contractile activity stimulated by oxytocin.

The subject of data set [6] is rat uterus. Kind of data set: Oxytocin-challenged uterine work in uteri of ovarectomised, sex hormone-treated rats. More on the design: maximum decrease in the intensity of the oxytocin response: dose or concentration left out as unconfirmed. The note with it: for maximum uterine work with oxytocin: hormone-treated group challenged with 100 mU oxytocin; for inhibition at 0.1 µM: 100 nM; for change of oxytocin EC50 values: 1 nM-1 μM.
Excerpt: as §4, §5
Challenging with oxytocin caused an increase in uterine work over baseline spontaneous activity.
as §6

Data set [7] has as its target T2, human non-pancreatic secretory PLA2 (type IIa) (Homo sapiens, UniProt P14555).
T2 sequence (P14555 21-144): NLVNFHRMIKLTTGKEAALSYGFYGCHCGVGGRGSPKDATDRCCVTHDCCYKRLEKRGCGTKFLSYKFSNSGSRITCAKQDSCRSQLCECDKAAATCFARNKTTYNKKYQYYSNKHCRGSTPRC
Kind of data set: Mixed micelle colorimetric assay for inhibition of human non-pancreatic sPLA2 (type IIa). The data set is classed as biochemical. Particulars: thio-PC/Triton X-100 mixed micelles, 37° C., Dixon plot (FIG. 3); read-out: IC50 against human non-pancreatic sPLA2 (type IIa). Here is the method: Reagents were obtained commercially in the sPhospholipase A2 Assay Kit, Cayman Chemical Company MI USA. Buffer (25 mM Tris HCl at pH 7.5, 1 mg/mL BSA, 0.3 mM Triton X-100, 100 mM KCl, 10 mM CaCl2), substrate (diheptanoyl thio-phosphatidyl choline), DTNB (5,5′-dithiobis(2-nitrobenzoic acid)) and a 96 well plate were all provided. Recombinant hIIa-PLA2 was provided by the Garvan Institute for Medical Research. […] Standard inhibitor solutions were prepared from anhydrous DMSO. All samples were run in triplicate including the blank and control samples.
[…] Thio-PC is processed by s-PLA2 and the free thiol produced is detected with DTNB (Ellman's Reagent). 5-Thio-2-nitrobenzoic acid is detected spectrophotometrically at […]. IC50's were determined by assaying inhibitors at a range of concentrations.

Data set [8] has as its system monocyte leukotriene release. Particulars: Cha, 1996; cited from earlier work.
Setting [9] is: Table 1, rat uterus model, read-out: ED50 Spontaneous contractions.
Where [10] appears, read: Table 1, rat uterus model, read-out: ED50 Oxytocin-induced contractions.
The mark [11] stands for this setting: range over spontaneous and oxytocin-induced contractions, read-out: EC50, inhibition of uterine contractions.
[12] abbreviates: Table 1, rat uterus model, NSAIDs.
[13] abbreviates: Rattus norvegicus, Oestrogen (O) group, mean ± SEM, read-out: maximum inhibition of uterine work, oxytocin challenge.
[14] abbreviates: Rattus norvegicus, Vehicle group, mean ± SEM, read-out: maximum inhibition of uterine work, oxytocin challenge.

In general, IC50 refers to the concentration that gives 50% inhibition. For the molecule `Cc1c(CC(N)=O)c2cc(OCCCP(=O)(O)O)ccc2n1Cc1ccccc1` [Compound 9, [3-(1-Benzyl-3-carbamoylmethyl-2-methyl-1H-indol-5-yloxy)-propyl]-phosphonic acid], the EC50 with rat uterus [1] (setting [9]) is 80 nM; with rat uterus [2] (setting [10]), 200 nM; with rat uterus [3] (FIG. 6, n=2, read-out: EC50, spontaneous contraction and oxytocin induced contractions in rat uterus), around 100 nM; in the data set with rat uterus [3] (setting [11]) it was 80 to 200 nM. Further, the IC50 in data set [4] was 36 nM.

`CC(=O)[C@H]1CC[C@H]2[C@@H]3CCC4=CC(=O)CC[C@]4(C)[C@H]3CC[C@]12C` [progesterone]: the spontaneous uterine work in the data set with rat uterus [5] is 10±0.9 mNs^−1. In the data set on rat uterus [6], the “maximum uterine work with oxytocin” value is recorded as 0.9 mNs^−1.

With `CN1C(C(=O)Nc2ccccn2)=C(O)c2ccccc2S1(=O)=O` [Piroxicam, piroxicam, reference compound], the “ED50 Spontaneous contractions” value in the data set with rat uterus [1] (setting [12]) was “No effect”. In the data set on rat uterus [2] (setting [12]), the “ED50 Oxytocin-induced contractions” value is “No Effect”. Also, the “drug concentrations suppressing spontaneous and oxytocin-induced uterine contractions” value in the data set with rat uterus [3] is “micromolar to millimolar”.

On to oestrogen, for which, in the data set with rat uterus [5], the spontaneous uterine work is recorded as 7.2±1.4 mNs^−1. The “maximum uterine work with oxytocin” value with rat uterus [6] came to 15.7 mNs^−1.

The term inhibition denotes the relative decrease from the control value, in per cent. One may read the melting point as the temperature of the solid-liquid transition. Take `O=C(O)CC[C@@H](CSc1ccc(Cc2ccccc2)cc1)NC(=O)CCCCCCc1ccccc1` [Compound 5, (S)-5-(4-Benzyl-phenylsulfanyl)-4-(7-phenyl-heptanoylamino)-pentanoic acid]: the melting point lay in the range of 89 to 91.5 °C. For the same molecule, the IC50 in [7] amounted to 42 nM. For the same molecule, the EC50 in the data set with rat uterus [1] (Rattus norvegicus, FIG. 4, n=3, read-out: EC50, spontaneous activity of rat uteri in the organ bath) was 30 nM. In the data set with rat uterus [1] (setting [9]), the EC50 was 30 nM. The EC50 with rat uterus [2] (Rattus norvegicus, FIG. 5, n=3, read-out: ED50, uterine contractions induced by oxytocin) worked out at 20 nM. The EC50 in the data set on rat uterus [2] (setting [10]) was determined as 20 nM. The “effect on spontaneous activity” value in the data set with rat uterus [5] (oestrogen and progesterone treated uteri, 1 nM-1 μM, n=5) is given as “did not inhibit”. Besides, in the data set on rat uterus [5] (oestrogen treated uteri, 10 nM, n=4, P<0.05), the “effect on spontaneous activity” value is “inhibited”. The “effect on spontaneous activity” value with rat uterus [5] (oil vehicle (control) rats, 1 nM, n=4, P<0.05) is reported as “inhibited spontaneous activity”. For the same molecule, the “effect on spontaneous activity” value in the data set on rat uterus [5] (progesterone treated uteri, 1 nM-1 μM, n=5) is “did not significantly inhibit”. Besides, the inhibition at 0.001 µM in the data set with rat uterus [6] (Rattus norvegicus, O + P group, 1 nM, mean ± SEM, read-out: maximum inhibition of uterine work, oxytocin challenge) was found to be 62%. Further, the inhibition at 0.1 µM in the data set with rat uterus [6] (setting [13]) came out at 34%. Besides, the inhibition at 0.01 µM with rat uterus [6] (Rattus norvegicus, Progesterone (P) group, 10 nM, mean ± SEM, read-out: maximum inhibition of uterine work, oxytocin challenge) amounted to 65%. The inhibition at 0.1 µM in the data set on rat uterus [6] (setting [14]) worked out at 40%. Also, in the data set on rat uterus [6] (oestrogen and progesterone treated uteri, n=5), the “change of oxytocin EC50 values” was “did not inhibit”. Besides, the “maximum decrease in the intensity of the oxytocin response” value with rat uterus [6] (oestrogen treated uteri) is recorded as 34%±5%. Also, the “change of oxytocin EC50 values” with rat uterus [6] (oestrogen treated uteri, n=4) is recorded as “did not alter”. For the same molecule, the “potency in inhibiting uterine contractions compared to NSAIDs” value in the data set on rat uterus [3] is 1,000 fold. Besides, the EC50 with rat uterus [3] (setting [11]) fell in the range of 1 to 20 nM. In addition, the IC50 in data set [8] was 350 nM.

On to `COc1ccc2cc([C@H](C)C(=O)O)ccc2c1` [naproxen, reference compound], for which the “drug concentrations suppressing spontaneous and oxytocin-induced uterine contractions” value with rat uterus [3] was “micromolar to millimolar”.

Turning to `CC(C(=O)O)c1cccc(C(=O)c2ccccc2)c1` (stereo not drawn) [Ketoprofen, ketoprofen, reference compound], in the data set with rat uterus [6] (O + P group, up to 10 μM), the “maximum inhibition of uterine work, oxytocin challenge” value was “no inhibitory effect”. Further, the inhibition at 0.1 µM in the data set with rat uterus [6] (setting [13]) came to 29%; in the data set with rat uterus [6] (Rattus norvegicus, Progesterone (P) group, mean ± SEM, read-out: maximum inhibition of uterine work, oxytocin challenge), 84%; in the data set on rat uterus [6] (setting [14]) it was 79%.

`Cc1c(Nc2ncccc2C(=O)O)cccc1C(F)(F)F` [Flunixin, flunixin meglumine, reference compound]: the “effect on spontaneous rat uterine contractions” value in the data set on rat uterus [1] (FIG. 7, 1 μM and 5 μM, n=3) is on record as “reduced spontaneous contractions”. In addition, the EC50 in the data set on rat uterus [1] (Table 1, rat uterus model, NSAIDs, read-out: ED50 Spontaneous contractions) amounted to 1000 nM; in the data set with rat uterus [2] (Table 1, rat uterus model, NSAIDs, read-out: ED50 Oxytocin-induced contractions), 1000 nM. Moreover, the “effect on oxytocin-induced contractions” value with rat uterus [2] (FIG. 7, n=3) is “no effect”. Besides, the “drug concentrations suppressing spontaneous and oxytocin-induced uterine contractions” value in the data set on rat uterus [3] is listed as “micromolar to millimolar”.
